In article PMC3101243, “Probenecid Inhibits the Human Bitter Taste Receptor TAS2R16 and Suppresses Bitter Perception of Salicin” (PLoS ONE, 2011):

Key:
Format in all cases: cell-based
hTAS2R38 = target: T1, hTAS2R38 (Homo sapiens, UniProt P59533, A49P/I296V); experiment: calcium flux in transfected HEK-293T cells (with Gα[…]gust44), inhibition of […] PTC response
T1 construct: gene TAS2R38; PAV variant; first 45 amino acids of the rat somatostatin type 3 receptor fused for cell-surface targeting
T1 sequence (P59533 whole entry A49P/I296V, the tested form may be a part): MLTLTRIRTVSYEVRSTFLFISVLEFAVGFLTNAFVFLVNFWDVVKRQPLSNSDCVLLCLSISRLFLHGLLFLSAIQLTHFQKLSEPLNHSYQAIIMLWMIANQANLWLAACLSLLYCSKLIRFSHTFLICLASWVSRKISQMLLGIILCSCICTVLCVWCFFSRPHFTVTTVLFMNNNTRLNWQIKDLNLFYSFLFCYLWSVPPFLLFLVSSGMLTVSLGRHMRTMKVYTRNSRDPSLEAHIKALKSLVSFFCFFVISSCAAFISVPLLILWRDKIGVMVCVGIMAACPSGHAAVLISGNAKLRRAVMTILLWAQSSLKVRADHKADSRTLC

hTAS2R16 [1] = target: T2, hTAS2R16 (Homo sapiens, UniProt Q9NYV7, R222H); experiment: calcium flux in transfected HEK-293T cells (with Gα[…]gust44), inhibition of […] salicin response; dose-response and mutant analysis
T2 construct: gene TAS2R16
T2 sequence (Q9NYV7 1-291 R222H): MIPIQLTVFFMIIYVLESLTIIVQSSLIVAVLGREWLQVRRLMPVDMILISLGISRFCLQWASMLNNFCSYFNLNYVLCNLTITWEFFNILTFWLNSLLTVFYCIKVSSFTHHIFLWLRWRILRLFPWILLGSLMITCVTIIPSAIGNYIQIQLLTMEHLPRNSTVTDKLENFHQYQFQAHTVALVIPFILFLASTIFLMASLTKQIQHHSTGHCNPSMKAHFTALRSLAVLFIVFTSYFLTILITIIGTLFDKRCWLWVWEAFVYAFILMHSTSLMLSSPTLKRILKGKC

hTAS2R16 [2] = target: T2, hTAS2R16; experiment: calcium flux agonist dose-response in transfected HEK-293T cells (with Gα[…]gust44)
hTAS2R43 = target: T3, hTAS2R43 (Homo sapiens, UniProt P59537); experiment: calcium flux in transfected HEK-293T cells (with Gα[…]gust44), […] aloin
T3 construct: gene TAS2R43; W35/H212 variant; first 45 amino acids of the rat somatostatin type 3 receptor fused for cell-surface targeting
T3 sequence (P59537 1-309): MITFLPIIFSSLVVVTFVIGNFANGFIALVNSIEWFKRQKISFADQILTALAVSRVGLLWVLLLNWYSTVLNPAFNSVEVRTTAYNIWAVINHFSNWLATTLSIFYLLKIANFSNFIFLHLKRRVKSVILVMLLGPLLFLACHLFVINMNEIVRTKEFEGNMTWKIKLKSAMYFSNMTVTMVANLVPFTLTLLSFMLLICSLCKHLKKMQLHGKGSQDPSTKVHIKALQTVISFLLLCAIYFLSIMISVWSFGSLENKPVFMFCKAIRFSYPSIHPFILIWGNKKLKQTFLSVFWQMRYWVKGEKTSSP

CCCN(CCC)S(=O)(=O)c1ccc(C(=O)O)cc1 [probenecid, p-(dipropylsulfamoyl)benzoic acid]
IC50 (hTAS2R38): 211 µM
IC50 (hTAS2R16 [1]): 292 µM

OCc1ccccc1O[C@@H]1O[C@H](CO)[C@@H](O)[C@H](O)[C@H]1O [salicin]
EC50 (hTAS2R16 [2]): ~1200 µM

O=C1c2c(O)cccc2C([C@@H]2O[C@H](CO)[C@@H](O)[C@H](O)[C@H]2O)c2cc(CO)cc(O)c21 (stereo partly shown) [aloin]
calcium flux in transfected HEK-293T cells (with Gα16gust44), 3 mM aloin (hTAS2R43): Aloin induced an increase in intracellular calcium in HEK-293T cells expressing hTAS2R43
